Where a SMILES comes first, the peptide text is derived from it. Bridges are numbered along the chain shown (N, C = ends). [ ]: non-standard residue; d: D form. Dap = NC[C@H](N)C(=O)O
Columns and labels:
[1] = Peptide stability in rat plasma (RP-HPLC); assay type: in vitro ADME; settings: for Stability in rat plasma / RP-HPLC peak area, incubation time 24 h / remaining at 24 h, 0.476 mM: 37°C, 24 h; for RP-HPLC peak area, Input (NT): no plasma treatment; for RP-HPLC peak area, incubation time 24 h / remaining at 24 h, 0.476 mM / RP-HPLC peak area, immediately after mixing / Residual rate, immediately after mixing: rat plasma; for remaining at 24 h, 0.476 mM: read-out: Residual rate, incubation time 24 h
Description: Each peptide (10 mM, 1 μl) was incubated with rat plasma (20 μl) prepared in-house. Immediately after mixing with plasma and after 24 h of incubation at 37°C, 80% acetonitrile (200 μl) was added to extract VIpep-3 and acetonitrile (200 μl) was added to extract KS-132, KS-133(monocyclic), and KS-133. The mixture was stored for 10 min on ice and then centrifuged at 20,000 × g for 10 min at 4°C. The supernatant was recovered and directly applied to RP-HPLC to determine the remaining amount of unmodified peptides in the sample.
The stability of peptides was evaluated in rat plasma. A peptide was incubated in rat plasma at 37°C for 0 and 24 h and the remaining amount of peptide was determined by RP-HPLC. By comparison with the peak area of the peptide, the remaining amount of the peptide after plasma incubation was estimated. […] KS-133(monocyclic) may form a pseudo bicyclic structure by ionic bond interaction between side chains of Lys and Asp.

human VIPR1 = biological target: T1, human VIPR1 (Homo sapiens, UniProt P32241); assay: Calcium influx assay, antagonist activity against VIP-VIPR1 signaling; assay type: cell-based; settings: ligand VIP (25 nM) at EC80; CHO-K1 cells; n = 4 wells, ± S.E.M; read-out: Ca influx assay [IC50 (nM)] VIPR1
T1 construct: host or cells: CHO-K1
T1 sequence (P32241 31-457): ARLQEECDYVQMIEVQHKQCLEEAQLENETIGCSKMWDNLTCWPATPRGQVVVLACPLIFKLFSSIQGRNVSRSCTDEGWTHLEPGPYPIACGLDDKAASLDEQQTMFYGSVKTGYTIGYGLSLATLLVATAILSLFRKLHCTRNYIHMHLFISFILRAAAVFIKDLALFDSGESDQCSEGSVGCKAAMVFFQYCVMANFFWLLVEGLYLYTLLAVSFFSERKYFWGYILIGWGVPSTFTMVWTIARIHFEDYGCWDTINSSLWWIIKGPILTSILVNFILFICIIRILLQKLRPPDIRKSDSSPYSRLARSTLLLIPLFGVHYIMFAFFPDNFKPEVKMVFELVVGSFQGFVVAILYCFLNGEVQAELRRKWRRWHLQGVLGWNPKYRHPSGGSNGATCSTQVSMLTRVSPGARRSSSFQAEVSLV
Description: (§1) Evaluation of antagonist activities of peptides against VIP-VIPR1, VIP-VIPR2, and PACAP-PAC1 signaling pathways and agonistic activity of KS-133 at VIPR2 was carried out by Eurofins DiscoverX (Fremont, CA, United States). Intracellular calcium mobilization was monitored using a calcium-sensitive dye loaded in CHO-K1 cells expressing human VIPR1 (ITEM 86-0030P-2243AN), VIPR2 (ITEM 86-0030P-2244AN), and PAC1 (ITEM 86-0030P-2066AN). The cells were preincubated with antagonistic peptides for 30 min at room temperature in the dark. After addition of the ligand at EC80, calcium mobilization was immediately monitored by FLIPR Tetra for 2 min. Cyclic AMP production in CHO-K1 cells expressing human VIPR2 was evaluated using HitHunter® cAMP assays (antagonist mode: ITEM 86-0007P-2362AN; agonist mode: ITEM 86-0007P-2362AG). The cells were preincubated with antagonistic peptides for 30 min at room temperature. After addition of the ligand at EC80, cells were further incubated for 30 min at room temperature. Cells were lysed and the cAMP content of the cell lysate was determined by the β-galactosidase-based enzyme fragment complementation assay ([Eglen, 2002]). IC50 values were estimated by the following equation: IC50 = 10^[Log(A/B) × (50–D)/(C–D) + Log(B)], where A is the concentration at >50% inhibition, B is the concentration at <50% inhibition, C is the inhibition rate at concertation A, and D is the inhibition rate at concertation B.
(§2) First, the antagonistic activities of parental VIpep-3, KS-132, KS-133 (monocyclic) (no bridging between Lys^7 and Asp^11), and KS-133 against human VIPR1, VIPR2, and PAC1 were evaluated by a calcium influx assay. After antagonistic peptide treatment for 30 min, ligand at a concentration of EC80 was added to the cells and then calcium signaling was measured.
(§3) FIGURE 3 Antagonistic/agonistic activities of peptides in the calcium influx and cAMP assays. For evaluation of the antagonistic activity, the cells were preincubated with antagonistic peptides for 30 min. In the calcium influx assay, after addition of ligand at EC80, calcium mobilization was monitored immediately (see details in the Methods section) (n = 4 wells for each treatment). In the cAMP assay, after a 30 min incubation with the ligand at EC80, cAMP production in cells was measured (see details in the Methods section) (n = 4 wells for each treatment).

human PAC1 = biological target: T2, human PAC1 (Homo sapiens, UniProt P41586); assay: Calcium influx assay, antagonist activity against PACAP-PAC1 signaling; assay type: cell-based; settings: ligand PACAP (35 nM) at EC80; CHO-K1 cells; n = 4 wells, ± S.E.M; read-out: Ca influx assay [IC50 (nM)] PAC1
T2 construct: host or cells: CHO-K1
T2 sequence (P41586 21-468): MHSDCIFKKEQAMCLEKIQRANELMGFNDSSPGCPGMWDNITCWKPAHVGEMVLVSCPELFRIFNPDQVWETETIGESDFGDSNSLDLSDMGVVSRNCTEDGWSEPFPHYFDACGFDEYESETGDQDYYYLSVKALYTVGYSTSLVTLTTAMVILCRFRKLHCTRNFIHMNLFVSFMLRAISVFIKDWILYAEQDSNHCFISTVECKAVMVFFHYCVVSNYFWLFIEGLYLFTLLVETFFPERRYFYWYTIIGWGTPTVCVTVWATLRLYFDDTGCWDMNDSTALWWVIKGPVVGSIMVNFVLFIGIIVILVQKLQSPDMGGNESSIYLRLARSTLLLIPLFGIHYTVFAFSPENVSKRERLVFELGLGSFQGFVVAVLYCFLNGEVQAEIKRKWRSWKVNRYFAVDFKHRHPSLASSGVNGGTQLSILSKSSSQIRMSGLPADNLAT
Description: as §1, §2, §3

human VIPR2 = biological target: T3, human VIPR2 (Homo sapiens, UniProt P41587); assay: Calcium influx assay, antagonist activity against VIP-VIPR2 signaling; assay type: cell-based; settings: ligand VIP (150 nM) at EC80; CHO-K1 cells; n = 4 wells, ± S.E.M; read-out: Ca influx assay [IC50 (nM)] VIPR2
T3 construct: host or cells: CHO-K1
T3 sequence (P41587 24-438): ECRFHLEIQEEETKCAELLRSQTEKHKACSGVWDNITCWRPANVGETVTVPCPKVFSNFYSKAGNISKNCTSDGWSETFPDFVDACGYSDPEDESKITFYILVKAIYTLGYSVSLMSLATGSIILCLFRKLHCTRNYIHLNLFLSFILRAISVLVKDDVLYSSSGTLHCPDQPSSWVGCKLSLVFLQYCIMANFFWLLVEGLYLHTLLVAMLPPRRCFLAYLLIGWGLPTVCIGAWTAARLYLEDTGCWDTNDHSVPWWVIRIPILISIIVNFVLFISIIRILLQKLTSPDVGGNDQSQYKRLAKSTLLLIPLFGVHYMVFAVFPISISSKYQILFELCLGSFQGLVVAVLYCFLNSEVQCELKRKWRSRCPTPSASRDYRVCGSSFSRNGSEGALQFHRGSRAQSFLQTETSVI
Description: as §1, with “The cells were preincubated with antagonistic peptides for 30 min at room temperature. After addition of the ligand at EC80, cells were further incubated for 30 min at room temperature.” left out, “IC50 values were estimated by the following equation: IC50 = 10^[Log(A/B) × (50–D)/(C–D) + Log(B)], where A is the concentration at >50% inhibition, B is the concentration at <50% inhibition, C is the inhibition rate at concertation A, and D is the inhibition rate at concertation B.” left out
as §2, with “measured. […]” for “measured.”

VIPR2 = tested on: VIPR2; design: method as in Sakamoto et al. (2018); settings: versus VIPR1 and PAC1; ref Sakamoto et al. (2018); cited from earlier work

Stability in rat plasma [1] | RP-HPLC peak area, Input (NT) [1] | RP-HPLC peak area, incubation time 24 h [1] | remaining at 24 h, 0.476 mM [1] [%] | RP-HPLC peak area, immediately after mixing [1] | Residual rate, immediately after mixing [1] [%] | IC50 (human VIPR1) [nM] | IC50 (human PAC1) [nM] | IC50 (human VIPR2) [nM] | SMILES | Receptor selectivity for VIPR2 compared with the two other receptor subtypes (VIPR2)
significantly degraded within 24 h | 1460241 | 696652 | 57.8 | 1206247 | 100 | > 5000 | > 5000 | 33.4 ± 2.8 | CC[C@H](C)[C@H](NC(=O)[C@H](CC(C)C)NC(=O)[C@H](CN)NC(=O)[C@@H]1CSSC[C@H](NC(C)=O)C(=O)N2CCC[C@H]2C(=O)N2CCC[C@H]2C(=O)N[C@@H](Cc2ccc(O)cc2)C(=O)N[C@@H](CC(C)C)C(=O)N2CCC[C@H]2C(=O)N[C@@H](CN)C(=O)N[C@@H](Cc2ccc(O)cc2)C(=O)N[C@@H](CC(C)C)C(=O)N1)C(N)=O [KS-132, Ac-c(Cys-Pro-Pro-Tyr-Leu-Pro-Dap-Tyr-Leu-Cys)-Dap-Leu-Ile-NH2] (Ac-CPPYLP[Dap]YLC[Dap]LI-NH2; disulfide 1-10) | 
also highly stable | 768775 | 724176 | 97.3 | 744262 | 100 | > 5000 | > 5000 | 56 ± 3.9 | CC[C@H](C)[C@H](NC(=O)[C@H](CC(C)C)NC(=O)[C@H](CC(=O)O)NC(=O)[C@@H]1CSSC[C@H](NC(C)=O)C(=O)N2CCC[C@H]2C(=O)N2CCC[C@H]2C(=O)N[C@@H](Cc2ccc(O)cc2)C(=O)N[C@@H](CC(C)C)C(=O)N2CCC[C@H]2C(=O)N[C@@H](CCCCN)C(=O)N[C@@H](Cc2ccc(O)cc2)C(=O)N[C@@H](CC(C)C)C(=O)N1)C(N)=O [KS-133(monocyclic)] (Ac-CPPYLPKYLCDLI-NH2; disulfide 1-10) | 
significantly degraded within 24 h | 1299273 | 95354 | 10.6 | 900813 | 100 | > 5000 | > 5000 |  | CC(=O)N[C@H]1CSSC[C@@H](C(=O)N[C@H](C(=O)N[C@@H](CC(C)C)C(=O)N[C@@H](CC(C)C)C(=O)N[C@@H](CC(C)C)C(=O)N[C@@H](CCCNC(=N)N)C(=O)N[C@@H](CO)C(=O)O)[C@@H](C)O)NC(=O)[C@H](CC(C)C)NC(=O)[C@H](CCCNC(=N)N)NC(=O)[C@H](CCCNC(=N)N)NC(=O)[C@@H]2CCCN2C(=O)[C@H](CC(C)C)NC(=O)[C@H](Cc2ccc(O)cc2)NC(=O)[C@@H]2CCCN2C(=O)[C@@H]2CCCN2C1=O [VIpep-3, Ac-c(CPPYLPRRLC)TLLLRS-OH, reference compound] (Ac-CPPYLPRRLCTLLLRS-OH; disulfide 1-10) | more than 50 fold
